Settings: 303.15 K, Liquid, Vibrating tube method

CCCCC(=O)OCC(COC(=O)CCCC)(COC(=O)CCCC)COC(=O)CCCC [pentaerythritol tetrapentanoate]
Settings | mass density [kg/m3]
751.89 kPa | 1011.3
752.93 kPa | 1011.3
753.46 kPa | 1011.4
754.85 kPa | 1011.5
756.07 kPa | 1011.3
757.1 kPa | 1011.2
758.15 kPa | 1011.2
759.55 kPa | 1011.4
760.59 kPa | 1011.3
761.46 kPa | 1011.3
762.5 kPa | 1011.4
763.72 kPa | 1011.3
764.76 kPa | 1011.3
765.97 kPa | 1011.4
767.19 kPa | 1011.3
768.22 kPa | 1011.4
769.27 kPa | 1011.3
770.14 kPa | 1011.4
771.18 kPa | 1011.4
772.57 kPa | 1011.4
773.96 kPa | 1011.4
775 kPa | 1011.3
776.04 kPa | 1011.3
777.44 kPa | 1011.4
778.31 kPa | 1011.3
779.51 kPa | 1011.4
781.59 kPa | 1011.4
782.99 kPa | 1011.3
784.03 kPa | 1011.3
785.06 kPa | 1011.2
786.46 kPa | 1011.3
787.68 kPa | 1011.4
788.72 kPa | 1011.4
790.1 kPa | 1011.3
793.58 kPa | 1011.4
796.19 kPa | 1011.4
797.22 kPa | 1011.4
798.28 kPa | 1011.4
799.66 kPa | 1011.4
800.87 kPa | 1011.4
802.26 kPa | 1011.3
803.13 kPa | 1011.3
804.36 kPa | 1011.3
806.1 kPa | 1011.3
807.3 kPa | 1011.2
808.17 kPa | 1011.4
809.57 kPa | 1011.4
810.78 kPa | 1011.4
811.81 kPa | 1011.4
813.39 kPa | 1011.4
814.44 kPa | 1011.4
815.81 kPa | 1011.4
816.86 kPa | 1011.3
818.08 kPa | 1011.4
819.64 kPa | 1011.3
820.86 kPa | 1011.4
822.25 kPa | 1011.3
823.47 kPa | 1011.4
824.68 kPa | 1011.4
826.25 kPa | 1011.3
827.28 kPa | 1011.4
828.32 kPa | 1011.4
830.07 kPa | 1011.4
831.46 kPa | 1011.3
832.68 kPa | 1011.3
834.23 kPa | 1011.4
835.46 kPa | 1011.3
836.32 kPa | 1011.3
837.71 kPa | 1011.3
839.27 kPa | 1011.4
840.67 kPa | 1011.4
841.53 kPa | 1011.4
843.1 kPa | 1011.5
844.31 kPa | 1011.4
846.05 kPa | 1011.4
847.44 kPa | 1011.4
848.82 kPa | 1011.4
850.22 kPa | 1011.5
851.43 kPa | 1011.4
852.99 kPa | 1011.3
854.55 kPa | 1011.4
855.43 kPa | 1011.3
856.64 kPa | 1011.4
858.56 kPa | 1011.4
859.94 kPa | 1011.3
861.33 kPa | 1011.4
862.89 kPa | 1011.4
864.28 kPa | 1011.4
865.5 kPa | 1011.5
866.89 kPa | 1011.3
868.64 kPa | 1011.3
869.85 kPa | 1011.3
871.4 kPa | 1011.4
872.8 kPa | 1011.3
874.36 kPa | 1011.4
875.58 kPa | 1011.4
877.31 kPa | 1011.4
878.7 kPa | 1011.3
880.09 kPa | 1011.4
881.48 kPa | 1011.3
882.37 kPa | 1011.5
884.28 kPa | 1011.4
885.67 kPa | 1011.4
886.88 kPa | 1011.4
888.45 kPa | 1011.5
890 kPa | 1011.4
891.23 kPa | 1011.4
892.79 kPa | 1011.4
894.35 kPa | 1011.5
895.75 kPa | 1011.3
897.31 kPa | 1011.5
899.39 kPa | 1011.5
900.97 kPa | 1011.4
902.17 kPa | 1011.4
903.4 kPa | 1011.4
904.79 kPa | 1011.4
906.87 kPa | 1011.4
908.62 kPa | 1011.4
910 kPa | 1011.4
911.39 kPa | 1011.4
913.13 kPa | 1011.4
914.69 kPa | 1011.5
916.25 kPa | 1011.5
917.82 kPa | 1011.4
919.55 kPa | 1011.4
921.29 kPa | 1011.4
922.68 kPa | 1011.4
924.26 kPa | 1011.5
925.81 kPa | 1011.4
927.54 kPa | 1011.6
929.11 kPa | 1011.4
931.03 kPa | 1011.4
932.76 kPa | 1011.6
934.31 kPa | 1011.4
936.05 kPa | 1011.5
937.62 kPa | 1011.4
939.53 kPa | 1011.5
941.27 kPa | 1011.5
943 kPa | 1011.4
944.4 kPa | 1011.5
946.13 kPa | 1011.4
947.18 kPa | 1011.5
949.26 kPa | 1011.4
950.82 kPa | 1011.4
952.73 kPa | 1011.5
954.48 kPa | 1011.5
956.38 kPa | 1011.4
958.11 kPa | 1011.4
960.21 kPa | 1011.4
961.77 kPa | 1011.5
963.32 kPa | 1011.5
965.24 kPa | 1011.4
967.49 kPa | 1011.5
969.05 kPa | 1011.5
970.44 kPa | 1011.4
972.01 kPa | 1011.5
974.27 kPa | 1011.4
976.34 kPa | 1011.4
977.92 kPa | 1011.4
979.13 kPa | 1011.6
